Patent publication EP0449009A2, “Use of gallopamil for the preparation of medicaments for the treatment of acute renal failure” (KNOLL AG, priority 1990, dated 1991)

Tested on: Patienten, die an akutem Nierenversagen erkrankt waren
Experiment: Clinical study of gallopamil infusion in patients with acute renal failure
Type: in vivo
Experimental: Zum Nachweis der Wirksamkeit bei akutem Nierenversagen wurde Gallopamil 8 Patienten, die an akutem Nierenversagen erkrankt waren, über einen Zeitraum von 4 Stunden intrarenal in Dosierungen von 40 bis 160 µg/min kontinuierlich infundiert. Gleichzeitig wurde intravenös ein Diuretikum (Furosemid) in einer Konzentration von 40 µg/min über 24 Stunden verabreicht. Bei 2 weiteren Patienten wurde Gallopamil intravenös über Zeiträume von 3 und 24 Stunden in einer Menge von 40 µg/min infundiert.
In dieser Studie konnte bei 80 % der Patienten der deletäre Verlauf des akuten Nierenversagens gestoppt werden (siehe nachstehende Tabelle).

[1] = whole study: 8 patients 40 to 160 µg/min intrarenal over 4 h + Furosemid i.v., 2 patients 40 µg/min intravenous

## COc1ccc(CCN(C)CCCC(C#N)(c2cc(OC)c(OC)c(OC)c2)C(C)C)cc1OC (stereo not drawn) [Gallopamil, 1-(3,4-Dimethoxyphenyl)-3-methylaza-7-cyan-7-(3,4,5-trimethoxyphenyl)-8-methylnonan]
Patient with G-6-PD (Glukose-6-phosphatdehydrogenasemangel), treatment begun 2 weeks after onset and after two dialyses, 83 µg/min intrarenal over 4 h + Furosemid 40 µg/min i.v. over 24 h, before treatment 0,8
  Kreatinin-Ausscheidung nach einem Behandlungstag: 1,2 ml/min
Patient with G-6-PD (Glukose-6-phosphatdehydrogenasemangel), treatment begun 2 weeks after onset and after two dialyses, 83 µg/min intrarenal over 4 h + Furosemid 40 µg/min i.v. over 24 h, before treatment 14,1
  Kreatininkonzentration im Blut nach sieben Behandlungstagen: 14,6 mg/dl
Patient with Malaria, treatment begun 2 weeks after onset and after two dialyses, 50 µg/min intrarenal over 4 h + Furosemid 40 µg/min i.v. over 24 h, before treatment 2,2
  Kreatinin-Ausscheidung nach einem Behandlungstag: 3,7 ml/min
Patient with Malaria, treatment begun 2 weeks after onset and after two dialyses, 50 µg/min intrarenal over 4 h + Furosemid 40 µg/min i.v. over 24 h, before treatment 12,7
  Kreatininkonzentration im Blut nach sieben Behandlungstagen: 5,5 mg/dl
Patient with Malaria, 40 µg/min intrarenal over 4 h + Furosemid 40 µg/min i.v. over 24 h, before treatment 5,3
  Kreatinin-Ausscheidung nach einem Behandlungstag: 14,3 ml/min
Patient with Malaria, 40 µg/min intrarenal over 4 h + Furosemid 40 µg/min i.v. over 24 h, before treatment 10,4
  Kreatininkonzentration im Blut nach sieben Behandlungstagen: 3,1 mg/dl
Patient with Rhabdomyolysis, 40 µg/min intravenous over 3 h, before treatment 5,2
  Kreatininkonzentration im Blut nach sieben Behandlungstagen: 5,9 mg/dl
Patient with Rhabdomyolysis, 40 µg/min intravenous over 3 h, before treatment 8,9
  Kreatinin-Ausscheidung nach einem Behandlungstag: 3,6 ml/min
Patient with Rhabdomyolysis, 80 µg/min intrarenal over 4 h + Furosemid 40 µg/min i.v. over 24 h, before treatment 4,0
  Kreatinin-Ausscheidung nach einem Behandlungstag: 5,1 ml/min
Patient with Rhabdomyolysis, 80 µg/min intrarenal over 4 h + Furosemid 40 µg/min i.v. over 24 h, before treatment 10,1
  Kreatininkonzentration im Blut nach sieben Behandlungstagen: 9,3 mg/dl
Patient with Schock, 40 µg/min intravenous over 24 h, before treatment 5,5
  Kreatininkonzentration im Blut nach sieben Behandlungstagen: 2,9 mg/dl
Patient with Schock, 40 µg/min intravenous over 24 h, before treatment 10,4
  Kreatinin-Ausscheidung nach einem Behandlungstag: 17,9 ml/min
Patient with Schock, 83 µg/min intrarenal over 4 h + Furosemid 40 µg/min i.v. over 24 h, before treatment 3,4
  Kreatinin-Ausscheidung nach einem Behandlungstag: 13,2 ml/min
Patient with Schock, 83 µg/min intrarenal over 4 h + Furosemid 40 µg/min i.v. over 24 h, before treatment 4,7
  Kreatininkonzentration im Blut nach sieben Behandlungstagen: 1,1 mg/dl
Patient with hypovolenischer Schock, 160 µg/min intrarenal over 4 h + Furosemid 40 µg/min i.v. over 24 h, before treatment 2,3
  Kreatinin-Ausscheidung nach einem Behandlungstag: 16,1 ml/min
Patient with hypovolenischer Schock, 160 µg/min intrarenal over 4 h + Furosemid 40 µg/min i.v. over 24 h, before treatment 9,6
  Kreatininkonzentration im Blut nach sieben Behandlungstagen: 2,5 mg/dl
Patient with septischer Schock, 83 µg/min intrarenal over 4 h + Furosemid 40 µg/min i.v. over 24 h, before treatment 10,6
  Kreatininkonzentration im Blut nach sieben Behandlungstagen: 1,3 mg/dl
Patient with septischer Schock, 83 µg/min intrarenal over 4 h + Furosemid 40 µg/min i.v. over 24 h, before treatment 29,0
  Kreatinin-Ausscheidung nach einem Behandlungstag: 48,0 ml/min
[1]
  Patienten, bei denen auf eine Dialyse verzichtet werden konnte: 90%
  Patienten, bei denen der deletäre Verlauf des akuten Nierenversagens gestoppt werden konnte: 80%
  Überleben des akuten Nierenversagens: alle Patienten überlebten
